Source: patent publication US10604481B2, “(Thio, oxo and seleno) semicarbazone complexes with zinc and their use for treating cancer” (RUTGERS, THE STATE UNIVERSITY OF NEW JERSEY, priority 2015, dated 2020)

Tests used:
[1] = Liposome import assay (RhodZin-3 in DOPC liposomes); conditions: for transport of Zn2+ into liposomes (rate of RZ-3 fluorescence increase): external [Zn2+]free 10 μM
Experimental: Zn^2+ alone was unable to permeate the liposomal membrane as indicated by the lack of RZ-3 fluorescence increase.
It can function as an ionophore in conditions of the liposome experiments where external [Zn^2+]free was 10 μM. However, in complete media containing 10% fetal bovine serum (FBS), Zn^2+-binding proteins from the serum (e.g. albumin) necessarily compete for Zn^2+ with any putative MC, making the effective [Zn^2+]free much lower than [Zn^2+]total.
DOPC-liposomes were prepared by film rehydration and extrusion followed by gel filtration and diluted to an OD600=0.06 in buffer. The size distribution of the liposomes was determined by dynamic light scattering (DLS) using a Malvern Zetasizer Nano ZS. Fluorescence measurements were taken on a Horiba Fluoromax-4 spectrofluorimeter in a 5×5 mm quartz cuvette with λex/λem=550/572 nm for RZ-3 and 490/515 nm for calcein. Initial Zn^2+ import/export was quantified by fitting the first 10-30 s of data after each treatment to a line and converted to units of flux using the following Eqn 1:
[formula] where Ji is the initial flux, ΔF/Δt is the slope of the fit line, Fmax is RZ-3 fluorescence in the presence of saturating Zn^2+ and 1% TritonX-100, Fmin is RZ-3 fluorescence in the presence of excess EDTA and 1% TritonX-100, [RZ3] is the concentration of encapsulated RZ-3, and SA/Vol is the surface area to volume ratio calculated assuming hollow spheres of the mean diameter determined by DLS. Intracellular [Zn^2+]free Imaging

H1299 (p53-null) = test: Three day cell growth inhibition assay, H1299; type: cell-based, human; conditions: FIG. 2
[2] = tested on: HEK293 (non-cancer, p53-WT) cells; test: Intracellular [Zn2+]free imaging with FluoZin-3-AM, HEK293; type: cell-based; conditions: for increase of intracellular [Zn2+]free (FZ3 fluorescence): HEK293, complete media
Experimental: To minimize the potential for Zn^2+ contamination and contributions from poorly defined elements in complete media (e.g. FBS), cells were treated and imaged in Ca^2+ and Mg^2+-free Earle's Balanced Salt Solution supplemented with 10 mM HEPES pH 7.4 (EBSS/H (−)Ca/Mg). Excess ZnCl2 with the Zn^2+ ionophore pyrithione (PYR) was used as a positive control. Excess membrane-permeable Zn^2+ chelator N,N,N′,N′-tetrakis(2-pyridylmethyl)ethane-1,2-diamine (TPEN) was used as a negative control.
To normalize for differential dye loading, cells were then sequentially treated with excess PYR/ZnCl2, imaged, treated with TPEN, and imaged again. PYR/ZnCl2 and TPEN served to saturate and apoize the intracellular FZ3, respectively.
TOV112D or HEK293 cells (40,000 cells/well) were plated on either 8-well BD Falcon chambered culture slides (Corning Life Sciences) or 8-chambered #1.5 Nunc Lab-Tek II chambered coverglasses (Thermo Scientific) treated with poly-L-lysine. After 48 h, cells were washed 2×5 m in serum-free media and incubated with 1 μM FZ3-AM for 40 m at 37° C. Cells were then washed 2×5 m in either EBSS/H (−)Ca/Mg or phenol-red free DMEM+10% FBS containing the indicated treatments for 20 m before imaging. For nuclear colocalization, 1 μg/mL Hoechst 33342 was also included. Cells were imaged using a Zeiss LSM510 META NLO confocal microscope equipped with 37° C. environmental control chamber. FZ3 and Hoechst 33342 were excited at 488 nm (argon laser) and 790 nm (Chameleon Ti:sapphire laser), respectively. To determine the kinetics of fluorescence change, each background-subtracted image in the time-lapse series was integrated in ImageJ and normalized to the integrated fluorescence of the first frame after treatment. For quantification of intracellular [Zn^2+]free, each cell was analyzed in the treated, 50 μM PYR/ZnCl2 (1:1), and 100 μM TPEN images by taking the mean fluorescence of an ROI inside the cell subtracted by an ROI immediately outside the cell measured in ImageJ. The [Zn^2+]free for each cell was then calculated by Eqn 2:
[formula] […] To minimize the effects of outliers the lowest and highest 5% of cells in each series were rejected, and the remaining values averaged to give the value from that experiment. The number of cells analyzed in each trial ranged from 54-163. For nuclear colocalization, treated, PYR/ZnCl2, and TPEN treated images costained with Hoechst 33342 were aligned and each pixel subjected to Eqn. 2 in MATLAB (MathWorks).

H460 (p53-WT) = test: Three day cell growth inhibition assay, H460; type: cell-based, human; conditions: H460 (p53 wildtype), FIG. 2
[3] = Mouse survival, daily IP administration (Example 13); type: in vivo; conditions: mice, ZN1 5.6 mg/kg vs ZMC1 5 mg/kg IP daily, FIG. 5

Compound	Zn2+ export from liposomes (RZ-3 fluorescence) ([1]; excess EDTA outside the liposomes)	transport of Zn2+ into liposomes (rate of RZ-3 fluorescence increase) [1]	cell growth inhibition (cell killing) (H1299 (p53-null))	t1/2 of intracellular [Zn2+]free increase ([2]; HEK293, ZMC1 and ZnCl2, EBSS/H (−)Ca/Mg, mean±SD, n=4) [min]	increase of intracellular [Zn2+]free (FZ3 fluorescence) [2]	cell growth inhibition (cell killing) (H460 (p53-WT))	potency in vivo (survival) relative to monomer ZMC1 [3]
C/C(=N\NC(=S)N1CCC1)c1ccccn1 [Compound 6, (E)-N′-(1-(pyridin-2-yl)ethylidene)azetidine-1-carbothiohydrazide]	time dependent decrease in RZ-3 fluorescence	dose-dependent increase	undisturbed	2.07 ± 0.333	increased intracellular [Zn^2+]free	undisturbed	
C/C(=N\NC(=O)N1CCC1)c1ccccn1 [Compound 10, (E)-N′-(1-(pyridin-2-yl)ethylidene)azetidine-1-carbohydrazide]		shuttled Zn^2+ into the liposomes			did not		
O=C(O)CN(CC(=O)O)CC(=O)O [NTA, reference compound]		did not			did not		
[Zn(ZMC1)2] [Compound 12]							greater potency
